{"source": "paper PMC12316308", "about": "“Interactions of substrates and phosphinyl containing inhibitors with bacterial and human zinc proteases” (PLOS One, 2025)", "key": {"[1]": {"target": "T1, Mag-Trypsin activated MMP-9 (MMP-9(MT)) (Homo sapiens, UniProt P14780)", "T1 construct": "made in house; host or cells: Sf9 and High Five insect cells", "T1 sequence (P14780 107-707 limits assumed)": "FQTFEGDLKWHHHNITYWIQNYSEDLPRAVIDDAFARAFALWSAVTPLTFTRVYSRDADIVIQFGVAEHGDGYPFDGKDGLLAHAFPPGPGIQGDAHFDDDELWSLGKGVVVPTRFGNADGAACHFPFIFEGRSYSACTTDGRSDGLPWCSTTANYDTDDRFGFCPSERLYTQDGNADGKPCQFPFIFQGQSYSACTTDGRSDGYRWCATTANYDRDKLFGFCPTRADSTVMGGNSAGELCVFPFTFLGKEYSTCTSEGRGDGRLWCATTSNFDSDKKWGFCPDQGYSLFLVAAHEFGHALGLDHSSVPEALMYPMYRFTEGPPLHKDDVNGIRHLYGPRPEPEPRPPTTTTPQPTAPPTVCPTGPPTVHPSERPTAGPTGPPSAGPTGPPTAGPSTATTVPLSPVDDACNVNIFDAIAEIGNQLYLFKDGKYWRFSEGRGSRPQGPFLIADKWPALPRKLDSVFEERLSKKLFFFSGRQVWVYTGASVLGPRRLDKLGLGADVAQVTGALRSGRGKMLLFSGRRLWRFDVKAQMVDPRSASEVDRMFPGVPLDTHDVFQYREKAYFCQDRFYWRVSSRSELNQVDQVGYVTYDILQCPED", "assay": "Enzyme inhibition kinetics, fluorogenic substrate ES001", "format": "biochemical", "conditions": "for Vi/V0 avg: Trypsin activated MMP-9, average"}, "[2]": {"target": "T2, aureolysin (ALN) (Staphylococcus aureus, UniProt P81177)", "T2 construct": "purchased BioCentrum Ltd (Kraków, Poland)", "T2 sequence (P81177 209-509)": "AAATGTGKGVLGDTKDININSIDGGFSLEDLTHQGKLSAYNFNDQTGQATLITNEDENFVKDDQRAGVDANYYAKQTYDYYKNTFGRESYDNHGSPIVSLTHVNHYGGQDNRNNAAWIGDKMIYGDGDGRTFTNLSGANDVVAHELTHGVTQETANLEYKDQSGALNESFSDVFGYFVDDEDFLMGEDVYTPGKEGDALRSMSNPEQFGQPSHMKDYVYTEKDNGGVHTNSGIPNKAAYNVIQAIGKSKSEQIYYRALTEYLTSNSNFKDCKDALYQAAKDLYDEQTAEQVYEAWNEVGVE", "assay": "Enzyme inhibition kinetics, fluorogenic substrate ES005", "format": "biochemical", "conditions": "for remaining activity at 100 µM: 100 µM inhibitor"}, "[3]": {"target": "T3, pseudolysin (PLN, LasB) (Pseudomonas aeruginosa, UniProt P14756)", "T3 construct": "purchased Calbiochem (San Diego, CA, USA)", "T3 sequence (P14756 198-498)": "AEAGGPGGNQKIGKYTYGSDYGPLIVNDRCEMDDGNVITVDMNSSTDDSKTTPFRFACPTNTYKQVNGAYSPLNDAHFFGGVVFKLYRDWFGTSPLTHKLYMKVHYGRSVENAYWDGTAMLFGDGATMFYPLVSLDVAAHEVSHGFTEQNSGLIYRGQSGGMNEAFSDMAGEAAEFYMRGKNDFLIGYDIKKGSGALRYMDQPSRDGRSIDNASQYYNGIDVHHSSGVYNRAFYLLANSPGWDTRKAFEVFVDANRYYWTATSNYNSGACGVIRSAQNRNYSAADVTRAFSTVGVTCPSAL", "assay": "Enzyme inhibition kinetics, fluorogenic substrate ES005", "format": "biochemical", "conditions": "for remaining activity at 100 µM: 100 µM inhibitor"}, "[4]": {"target": "T4, thermolysin (TLN) (Bacillus thermoproteolyticus, UniProt P00800)", "T4 construct": "purchased Calbiochem (San Diego, CA, USA)", "T4 sequence (P00800 233-548)": "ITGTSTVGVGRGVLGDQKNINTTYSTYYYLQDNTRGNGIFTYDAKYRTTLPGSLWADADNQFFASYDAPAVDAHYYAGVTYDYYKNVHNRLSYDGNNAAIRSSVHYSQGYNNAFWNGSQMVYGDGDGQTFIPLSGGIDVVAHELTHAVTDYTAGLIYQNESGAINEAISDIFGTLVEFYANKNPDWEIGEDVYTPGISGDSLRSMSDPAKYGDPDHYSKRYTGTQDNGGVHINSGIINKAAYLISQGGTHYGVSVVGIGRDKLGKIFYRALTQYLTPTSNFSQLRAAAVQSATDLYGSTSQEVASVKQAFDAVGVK", "assay": "Enzyme inhibition kinetics, fluorogenic substrate ES005", "format": "biochemical", "conditions": "for vi/v0 avg (time dependent inhibition, Supplementary Figure S8): Thermolysin, inhibitor 100 µM", "how_it_was_run": "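Initial rates were read at 37 °C (ex 320/em 405 nm) with 4.0 µM substrate, ES001 for MMP-14 (1.0 nM) and ES005 for PLN (0.5 nM), TLN (0.21 nM), ALN (1.4 nM), in pH 7.5 Hepes, 10 mM CaCl2, 0.005% Brij-35, 1.0% DMSO. Enzymes were preincubated 30 min at room temperature or not; IC50 fitted, Ki from IC50 using Km.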"}, "[5]": {"target": "MMP-9", "conditions": "previously reported; cited from earlier work"}, "[6]": {"target": "MMP-14", "conditions": "previously reported; cited from earlier work"}}, "note": "Values joined by “and” are separate entries in the source; they are usually repeats but may differ in a detail not shown here. Identical values can stand only once. “Also recorded” adds a separate entry of the source. Like-named read-outs stand apart in the source and are kept apart here.", "data": [{"smiles": "NC(=O)C(CCC(=O)O)NC(=O)C(CCC(=O)O)NC(=O)C(Cc1cc(-c2ccc(-c3cccc(Cl)c3)cc2)no1)CP(=O)(O)c1ccc(Br)cc1", "note": "(stereo not drawn) [H-1]", "values": [{"measurement": "Vi/V0 avg", "setting": "[1]; [H1] 30 μM", "result": 0.6506}, {"measurement": "Vi/V0 avg", "setting": "[1]; [H1] 40 μM", "result": 0.6729}, {"measurement": "Vi/V0 avg", "setting": "[1]; [H1] 50 μM", "result": 0.6218}, {"measurement": "Vi/V0 avg", "setting": "[1]; [H1] 60 μM", "result": 0.5683}, {"measurement": "Vi/V0 avg", "setting": "[1]; [H1] 70 μM", "result": 0.5353}, {"measurement": "Vi/V0 avg", "setting": "[1]; [H1] 80 μM", "result": 0.5363}, {"measurement": "Vi/V0 avg", "setting": "[1]; [H1] 90 μM", "result": 0.4452}, {"measurement": "Vi/V0 avg", "setting": "[1]; [H1] 100 μM", "result": 0.4212}, {"measurement": "vi/v0 Av (bar diagram figure 7)", "setting": "[1]; rMMP-9 (Mag-trypsin activated), inhibitor 100 μM, average over 0, 15, 30 min preincubation", "result": 0.4755}, {"measurement": "vi/v0 (relative enzyme activity with inhibitor), single determinations", "setting": "[1]; rMMP-9 (Mag-trypsin activated), inhibitor 100 μM, preincubation 0 min", "result": "0.4571 and 0.4536 and 0.4887 and 0.489"}, {"measurement": "vi/v0 (relative enzyme activity with inhibitor), single determinations", "setting": "[1]; rMMP-9 (Mag-trypsin activated), inhibitor 100 μM, preincubation 15 min", "result": "0.3806 and 0.5206 and 0.4881 and 0.528"}, {"measurement": "vi/v0 (relative enzyme activity with inhibitor), single determinations", "setting": "[1]; rMMP-9 (Mag-trypsin activated), inhibitor 100 μM, preincubation 30 min", "result": "0.4739 and 0.4997 and 0.4971 and 0.4295"}, {"measurement": "remaining activity at 10 µM", "setting": "[1]; read-out: Vi/V0, Trypsin activated MMP-9, [H1] 10 μM, replicate vi over each of 4 controls", "result": 76.1, "unit": "%"}, {"measurement": "remaining activity at 40 µM", "setting": "[1]; read-out: Vi/V0, Trypsin activated MMP-9, [H1] 40 μM, replicate vi over each of 4 controls", "result": 63.2, "unit": "%"}, {"measurement": "remaining activity at 50 µM", "setting": "[1]; read-out: Vi/V0, Trypsin activated MMP-9, [H1] 50 μM, replicate vi over each of 4 controls", "result": 58.9, "unit": "%"}, {"measurement": "remaining activity at 60 µM", "setting": "[1]; read-out: Vi/V0, Trypsin activated MMP-9, [H1] 60 μM, replicate vi over each of 4 controls", "result": 52.9, "unit": "%"}, {"measurement": "remaining activity at 70 µM", "setting": "[1]; read-out: Vi/V0, Trypsin activated MMP-9, [H1] 70 μM, replicate vi over each of 4 controls", "result": 49.6, "unit": "%"}, {"measurement": "remaining activity at 80 µM", "setting": "[1]; read-out: Vi/V0, Trypsin activated MMP-9, [H1] 80 μM, replicate vi over each of 4 controls", "result": 51, "unit": "%"}, {"measurement": "remaining activity at 90 µM", "setting": "[1]; read-out: Vi/V0, Trypsin activated MMP-9, [H1] 90 μM, replicate vi over each of 4 controls", "result": 44.2, "unit": "%"}, {"measurement": "remaining activity at 100 µM", "setting": "[1]; read-out: Vi/V0, Trypsin activated MMP-9, [H1] 100 μM, replicate vi over each of 4 controls", "result": 40.5, "unit": "%"}, {"measurement": "remaining activity at 100 µM", "setting": "[1]; read-out: vi/v0 (single replicate), rMMP-9 (Mag-trypsin activated), 100 µM inhibitor, no preincubation", "result": 45.7, "unit": "%"}, {"measurement": "remaining activity at 100 µM", "setting": "[1]; read-out: vi/v0 avg, rMMP-9 (Mag-trypsin activated), 100 µM inhibitor, no preincubation", "result": 47.2, "unit": "%"}, {"measurement": "remaining activity at 100 µM", "setting": "[2]; 0.25 h, read-out: vi/v0 (single replicate), Aureolysin, 15 min pre incubation", "result": 81.9, "unit": "%"}, {"measurement": "remaining activity at 100 µM", "setting": "[2]; 0.25 h, read-out: vi/v0 avg, Aureolysin, 15 min pre incubation", "result": 88.7, "unit": "%"}, {"measurement": "remaining activity at 100 µM", "setting": "[2]; 0.5 h, read-out: vi/v0 (single replicate), Aureolysin, 30 min pre incubation", "result": 89.6, "unit": "%"}, {"measurement": "remaining activity at 100 µM", "setting": "[2]; 0.5 h, read-out: vi/v0 avg, Aureolysin, 30 min pre incubation", "result": 89.8, "unit": "%"}, {"measurement": "inhibitory effect on enzymatic activity", "setting": "[2]; ALN, 100 μM compound, in words, 100 µM", "result": "did not inhibit; also recorded: no inhibition"}, {"measurement": "vi/v0 Av (bar diagram figure 7)", "setting": "[2]; Aureolysin (ALN), inhibitor 100 μM, average over 0, 15, 30 min preincubation", "result": 0.886}, {"measurement": "vi/v0 (relative enzyme activity with inhibitor), single determinations", "setting": "[2]; Aureolysin (ALN), inhibitor 100 μM, preincubation 0 min", "result": "0.8363 and 0.9057 and 0.9048 and 0.862"}, {"measurement": "vi/v0 (relative enzyme activity with inhibitor), single determinations", "setting": "[2]; Aureolysin (ALN), inhibitor 100 μM, preincubation 15 min", "result": "0.8192 and 0.9295 and 0.9112"}, {"measurement": "vi/v0 (relative enzyme activity with inhibitor), single determinations", "setting": "[2]; Aureolysin (ALN), inhibitor 100 μM, preincubation 30 min", "result": "0.8961 and 0.9218 and 0.8734"}, {"measurement": "remaining activity at 100 µM", "setting": "[2]; read-out: vi/v0 (single replicate), Aureolysin, no preincubation", "result": 83.6, "unit": "%"}, {"measurement": "remaining activity at 100 µM", "setting": "[2]; read-out: vi/v0 avg, Aureolysin, no preincubation", "result": 87.7, "unit": "%"}, {"measurement": "remaining activity at 100 µM", "setting": "[3]; 0.25 h, read-out: vi/v0 (single replicate), Pseudolysin, 15 min pre incubation", "result": 97.4, "unit": "%"}, {"measurement": "remaining activity at 100 µM", "setting": "[3]; 0.25 h, read-out: vi/v0 avg, Pseudolysin, 15 min pre incubation", "result": 100, "unit": "%"}, {"measurement": "remaining activity at 100 µM", "setting": "[3]; 0.5 h, read-out: vi/v0 (single replicate), Pseudolysin, 30 min pre incubation", "result": 99, "unit": "%"}, {"measurement": "remaining activity at 100 µM", "setting": "[3]; 0.5 h, read-out: vi/v0 avg, Pseudolysin, 30 min pre incubation", "result": 96.9, "unit": "%"}, {"measurement": "inhibitory effect on enzymatic activity", "setting": "[3]; PLN, 100 μM compound, in words, 100 µM", "result": "did not inhibit; also recorded: no inhibition"}, {"measurement": "vi/v0 Av (bar diagram figure 7)", "setting": "[3]; Pseudolysin (PLN), inhibitor 100 μM, average over 0, 15, 30 min preincubation", "result": 0.993}, {"measurement": "vi/v0 (relative enzyme activity with inhibitor), single determinations", "setting": "[3]; Pseudolysin (PLN), inhibitor 100 μM, preincubation 0 min", "result": "0.9731 and 1.039 and 1.005 and 1.023"}, {"measurement": "vi/v0 (relative enzyme activity with inhibitor), single determinations", "setting": "[3]; Pseudolysin (PLN), inhibitor 100 μM, preincubation 15 min", "result": "0.9736 and 1.014 and 0.9905 and 1.0217"}, {"measurement": "vi/v0 (relative enzyme activity with inhibitor), single determinations", "setting": "[3]; Pseudolysin (PLN), inhibitor 100 μM, preincubation 30 min", "result": "0.9904 and 0.9857 and 0.9514 and 0.949"}, {"measurement": "remaining activity at 100 µM", "setting": "[3]; read-out: vi/v0 (single replicate), Pseudolysin, no preincubation", "result": 97.3, "unit": "%"}, {"measurement": "remaining activity at 100 µM", "setting": "[3]; read-out: vi/v0 avg, Pseudolysin, no preincubation", "result": 101, "unit": "%"}, {"measurement": "inhibitory effect on enzymatic activity", "setting": "[4]; TLN, 100 μM compound, in words, 100 µM", "result": "did not inhibit; also recorded: no inhibition"}, {"measurement": "vi/v0 Av (bar diagram figure 7)", "setting": "[4]; Thermolysin (TLN), inhibitor 100 μM, average over 0, 15, 30 min preincubation", "result": 1.079}, {"measurement": "vi/v0 (relative enzyme activity with inhibitor), single determinations", "setting": "[4]; Thermolysin (TLN), inhibitor 100 μM, preincubation 0 min", "result": "1.072 and 1.233 and 0.6933 and 1.269"}, {"measurement": "vi/v0 (relative enzyme activity with inhibitor), single determinations", "setting": "[4]; Thermolysin (TLN), inhibitor 100 μM, preincubation 15 min", "result": "1.072 and 0.7991 and 1.161 and 1.236"}, {"measurement": "vi/v0 (relative enzyme activity with inhibitor), single determinations", "setting": "[4]; Thermolysin (TLN), inhibitor 100 μM, preincubation 30 min", "result": "1.057 and 0.7107 and 1.167 and 1.093"}, {"measurement": "vi/v0 avg (time dependent inhibition, Supplementary Figure S8)", "setting": "[4]; 15 min pre incubation", "result": 1.067}, {"measurement": "vi/v0 avg (time dependent inhibition, Supplementary Figure S8)", "setting": "[4]; 30 min pre incubation", "result": 1.007}, {"measurement": "vi/v0 avg (time dependent inhibition, Supplementary Figure S8)", "setting": "[4]; No preincubation", "result": 1.0666}, {"measurement": "Ki", "setting": "[5]", "result": 1.3, "unit": "µM"}, {"measurement": "Ki", "setting": "[6]", "result": 0.14, "unit": "µM"}]}]}
